Experimental data published in the supplement of paper PMC9663587.

Columns and labels:
[1] = compound: CCCCOc1c(C(=O)c2c(F)cc(C)cc2F)c[nH]c2nncc1-2
Luminespib/NVP-AUY922 = compound: CCNC(=O)c1noc(-c2cc(C(C)C)c(O)cc2O)c1-c1ccc(CN2CCOCC2)cc1 [Luminespib/NVP-AUY922]
THZ-P1-2 = compound: CN(C)C/C=C/C(=O)NC1=CC=C(C=C1)C(=O)NC2=CC=CC(=C2)NC3=NC=NC(=C3)C4=CNC5=CC=CC=C54 [THZ-P1-2]
BSJ-01-175 = compound: CN(C)C/C=C/C(=O)Nc1ccc(O[C@@H]2CCC[C@@H](Nc3ncc(Cl)c(-c4c[nH]c5ccccc45)n3)C2)cc1 [BSJ-01-175]
Saracatinib/AZD0530 = compound: CN1CCN(CCOc2cc(OC3CCOCC3)c3c(Nc4c(Cl)ccc5c4OCO5)ncnc3c2)CC1 [Saracatinib/AZD0530]
Ceritinib/LDK378 = compound: Cc1cc(Nc2ncc(Cl)c(Nc3ccccc3S(=O)(=O)C(C)C)n2)c(OC(C)C)cc1C1CCNCC1 [Ceritinib/LDK378]
YKL-5-124 = compound: C=CC(=O)Nc1ccc(C(=O)Nc2[nH]nc3c2CN(C(=O)N[C@H](CN(C)C)c2ccccc2)C3(C)C)cc1 [YKL-5-124]; assay: increase in dead-cell fraction, 72 h; higher = more death;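 also: breast cancer cell lines in 384-well plates, stained with Hoechst plus LIVE/DEAD far red dye and imaged, cells above an LDR intensity threshold counted dead, Hoechst-negative corpses included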
BSJ-03-123 = compound: CC(=O)c1c(C)c2cnc(Nc3ccc(N4CCN(CCOCCOCCOCCNC(=O)COc5cccc6c5C(=O)N(C5CCC(=O)NC5=O)C6=O)CC4)cn3)nc2n(C2CCCC2)c1=O [BSJ-03-123]; assay: as above
[2] = compound: CC(=O)c1c(C)c2cnc(Nc3ccc(N4CCNCC4)cn3)nc2n(C2CCCC2)c1=O; assay: as above
[3] = compound: CCN1CCN(Cc2ccc(Nc3ncc(F)c(-c4cc(F)c5nc(C)n(C(C)C)c5c4)n3)nc2)CC1; assay: as above
Neratinib/HKI272 = compound: CCOc1cc2ncc(C#N)c(Nc3ccc(OCc4ccccn4)c(Cl)c3)c2cc1NC(=O)/C=C/CN(C)C [Neratinib/HKI272]; assay: as above
[4] = compound: CCc1cnn2c(NCc3ccc[n+]([O-])c3)cc(N3CCCC[C@H]3CCO)nc12; assay: as above
LEE011/Ribociclib = compound: CN(C)C(=O)c1cc2cnc(Nc3ccc(N4CCNCC4)cn3)nc2n1C1CCCC1 [LEE011/Ribociclib]; assay: as above
THZ531 = compound: CN(C)C/C=C/C(=O)Nc1ccc(C(=O)N2CCC[C@@H](Nc3ncc(Cl)c(-c4c[nH]c5ccccc45)n3)C2)cc1 [THZ531]; assay: as above
THZ1 = compound: CN(C)C/C=C/C(=O)Nc1ccc(C(=O)Nc2cccc(Nc3ncc(Cl)c(-c4c[nH]c5ccccc45)n3)c2)cc1 [THZ1]; assay: as above
Flavopiridol = compound: CN1CC[C@H](c2c(O)cc(O)c3c(=O)cc(-c4ccccc4Cl)oc23)[C@H](O)C1 [Flavopiridol]; assay: as above
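For GR50, 72 h in this document: breast cancer and non-malignant breast epithelial cell lines, Deep Dye Drop or Dye Drop imaging, nine half-log doses, GR normalized to time-zero plates and DMSO-only controls.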

MDAMB415
GR50, 72 h [1]: 1.87 µM | GR50, 72 h (Luminespib/NVP-AUY922): 0.00909 µM | GR50, 72 h (THZ-P1-2): 0.0764 µM | GR50, 72 h (BSJ-01-175): 0.0616 µM | GR50, 72 h (Saracatinib/AZD0530): 4.22 µM | GR50, 72 h (Ceritinib/LDK378): 3.76 µM | increase in dead-cell fraction (YKL-5-124; 0.001 µM): 0.0047 | increase in dead-cell fraction (YKL-5-124; 0.003162 µM): -0.0002 | increase in dead-cell fraction (YKL-5-124; 0.01 µM): 0.0066 | increase in dead-cell fraction (YKL-5-124; 0.03162 µM): 0.0051 | increase in dead-cell fraction (YKL-5-124; 0.1 µM): 0.0109 | increase in dead-cell fraction (YKL-5-124; 0.3162 µM): 0.0176 | increase in dead-cell fraction (YKL-5-124; 1 µM): 0.0019 | increase in dead-cell fraction (YKL-5-124; 3.162 µM): 0.0153 | increase in dead-cell fraction (YKL-5-124; 10 µM): 0.0261 | increase in dead-cell fraction (BSJ-03-123; 0.001 µM): -0.001 | increase in dead-cell fraction (BSJ-03-123; 0.003162 µM): 0.0018 | increase in dead-cell fraction (BSJ-03-123; 0.01 µM): 0.0044 | increase in dead-cell fraction (BSJ-03-123; 0.03162 µM): 0.0034 | increase in dead-cell fraction (BSJ-03-123; 0.1 µM): 0.0066 | increase in dead-cell fraction (BSJ-03-123; 0.3162 µM): 0.0057 | increase in dead-cell fraction (BSJ-03-123; 1 µM): 0.0048 | increase in dead-cell fraction (BSJ-03-123; 3.162 µM): 0.0092 | increase in dead-cell fraction (BSJ-03-123; 10 µM): 0.0219 | increase in dead-cell fraction ([2]; 0.0003162 µM): 0.0016 | increase in dead-cell fraction ([2]; 0.001 µM): -0.0037 | increase in dead-cell fraction ([2]; 0.003162 µM): 0.0018 | increase in dead-cell fraction ([2]; 0.01 µM): -0.0004 | increase in dead-cell fraction ([2]; 0.03162 µM): 0.0059 | increase in dead-cell fraction ([2]; 0.1 µM): 0.0074 | increase in dead-cell fraction ([2]; 0.3162 µM): 0.0128 | increase in dead-cell fraction ([2]; 1 µM): 0.0178 | increase in dead-cell fraction ([2]; 3.162 µM): 0.0141 | increase in dead-cell fraction ([3]; 0.001 µM): 0.0027 | increase in dead-cell fraction ([3]; 0.003162 µM): 0.004 | increase in dead-cell fraction ([3]; 0.01 µM): 0.0062 | increase in dead-cell fraction ([3]; 0.03162 µM): 0.015 | increase in dead-cell fraction ([3]; 0.1 µM): 0.0137 | increase in dead-cell fraction ([3]; 0.3162 µM): 0.021 | increase in dead-cell fraction ([3]; 1 µM): 0.0176 | increase in dead-cell fraction ([3]; 3.162 µM): 0.0092 | increase in dead-cell fraction ([3]; 10 µM): 0.0164 | increase in dead-cell fraction (Neratinib/HKI272; 0.0003162 µM): -0.0004 | increase in dead-cell fraction (Neratinib/HKI272; 0.001 µM): 0 | increase in dead-cell fraction (Neratinib/HKI272; 0.003162 µM): 0.0031 | increase in dead-cell fraction (Neratinib/HKI272; 0.01 µM): -0.0015 | increase in dead-cell fraction (Neratinib/HKI272; 0.03162 µM): 0.0006 | increase in dead-cell fraction (Neratinib/HKI272; 0.1 µM): 0.0036 | increase in dead-cell fraction (Neratinib/HKI272; 0.3162 µM): 0.0023 | increase in dead-cell fraction (Neratinib/HKI272; 1 µM): 0.0057 | increase in dead-cell fraction (Neratinib/HKI272; 3.162 µM): 0.017 | increase in dead-cell fraction ([4]; 0.0001 µM): -0.001 | increase in dead-cell fraction ([4]; 0.0003162 µM): 0.0007 | increase in dead-cell fraction ([4]; 0.001 µM): -0.0017 | increase in dead-cell fraction ([4]; 0.003162 µM): 0.0007 | increase in dead-cell fraction ([4]; 0.01 µM): 0.0031 | increase in dead-cell fraction ([4]; 0.03162 µM): 0.0447 | increase in dead-cell fraction ([4]; 0.1 µM): 0.152 | increase in dead-cell fraction ([4]; 0.3162 µM): 0.12 | increase in dead-cell fraction ([4]; 1 µM): 0.154 | increase in dead-cell fraction (LEE011/Ribociclib; 0.001 µM): 0.0085 | increase in dead-cell fraction (LEE011/Ribociclib; 0.003162 µM): 0.0083 | increase in dead-cell fraction (LEE011/Ribociclib; 0.01 µM): 0.01 | increase in dead-cell fraction (LEE011/Ribociclib; 0.03162 µM): 0.0117 | increase in dead-cell fraction (LEE011/Ribociclib; 0.1 µM): 0.0179 | increase in dead-cell fraction (LEE011/Ribociclib; 0.3162 µM): 0.0109 | increase in dead-cell fraction (LEE011/Ribociclib; 1 µM): 0.0253 | increase in dead-cell fraction (LEE011/Ribociclib; 3.162 µM): 0.0174 | increase in dead-cell fraction (LEE011/Ribociclib; 10 µM): 0.0203 | increase in dead-cell fraction (THZ531; 0.0001 µM): 0.003 | increase in dead-cell fraction (THZ531; 0.0003162 µM): 0.0003 | increase in dead-cell fraction (THZ531; 0.001 µM): 0.0038 | increase in dead-cell fraction (THZ531; 0.003162 µM): 0.0023 | increase in dead-cell fraction (THZ531; 0.01 µM): 0.0067 | increase in dead-cell fraction (THZ531; 0.03162 µM): 0.0049 | increase in dead-cell fraction (THZ531; 0.1 µM): 0.0372 | increase in dead-cell fraction (THZ531; 0.3162 µM): 0.104 | increase in dead-cell fraction (THZ531; 1 µM): 0.104 | increase in dead-cell fraction (THZ1; 0.0001 µM): 0.0048 | increase in dead-cell fraction (THZ1; 0.0003162 µM): 0.0014 | increase in dead-cell fraction (THZ1; 0.001 µM): 0.0046 | increase in dead-cell fraction (THZ1; 0.003162 µM): -0.0013 | increase in dead-cell fraction (THZ1; 0.01 µM): 0.0061 | increase in dead-cell fraction (THZ1; 0.03162 µM): 0.0106 | increase in dead-cell fraction (THZ1; 0.1 µM): 0.0295 | increase in dead-cell fraction (THZ1; 0.3162 µM): 0.0604 | increase in dead-cell fraction (THZ1; 1 µM): 0.13 | increase in dead-cell fraction (Flavopiridol; 0.0001 µM): 0.0065 | increase in dead-cell fraction (Flavopiridol; 0.0003162 µM): 0.0005 | increase in dead-cell fraction (Flavopiridol; 0.001 µM): 0.0075 | increase in dead-cell fraction (Flavopiridol; 0.003162 µM): 0.0004 | increase in dead-cell fraction (Flavopiridol; 0.01 µM): -0.0008 | increase in dead-cell fraction (Flavopiridol; 0.03162 µM): 0.002 | increase in dead-cell fraction (Flavopiridol; 0.1 µM): 0.0078 | increase in dead-cell fraction (Flavopiridol; 0.3162 µM): 0.0072 | increase in dead-cell fraction (Flavopiridol; 1 µM): 0.0932
